Tested on: 596521-263-R-J1-PDC complex spheroids, viability % of control
Experiment: Anticancer human tumor 596521-263-R-J1-PDC patient-derived soft tissue sarcoma cell line growth inhibition [GQUAD]
Conditions: for IC50: curve of first compound; for viability, T/C: stronger effect = lower value
How it was run: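 Tumor cells were grown as complex spheroids with HUVEC endothelial cells and mesenchymal stem cells as stroma. G-quadruplex stabilizers were combined with targeted agents over half-log dilutions from near the clinical Cmax, or from 10 microM.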

[1] = second compound 0.0316 µM, first compound 0.0316 µM
[2] = second compound 0.0316 µM, first compound 0.1 µM
[3] = second compound 0.0316 µM, first compound 0.316 µM
[4] = second compound 0.0316 µM, first compound 1 µM
[5] = second compound 0.0316 µM, first compound 3.16 µM
[6] = second compound 0.0316 µM, first compound 10 µM
[7] = second compound 0.1 µM, first compound 0.0316 µM
[8] = second compound 0.1 µM, first compound 0.1 µM
[9] = second compound 0.1 µM, first compound 0.316 µM
[10] = second compound 0.1 µM, first compound 1 µM
[11] = second compound 0.1 µM, first compound 3.16 µM
[12] = second compound 0.1 µM, first compound 10 µM
[13] = second compound 0.316 µM, first compound 0.0316 µM
[14] = second compound 0.316 µM, first compound 0.1 µM
[15] = second compound 0.316 µM, first compound 0.316 µM
[16] = second compound 0.316 µM, first compound 1 µM
[17] = second compound 0.316 µM, first compound 3.16 µM
[18] = second compound 0.316 µM, first compound 10 µM
[19] = second compound 1 µM, first compound 0.0316 µM
[20] = second compound 1 µM, first compound 0.1 µM
[21] = second compound 1 µM, first compound 0.316 µM
[22] = second compound 1 µM, first compound 1 µM
[23] = second compound 1 µM, first compound 3.16 µM
[24] = second compound 1 µM, first compound 10 µM
[25] = second compound 3.16 µM, first compound 0.0316 µM
[26] = second compound 3.16 µM, first compound 0.1 µM
[27] = second compound 3.16 µM, first compound 0.316 µM
[28] = second compound 3.16 µM, first compound 1 µM
[29] = second compound 3.16 µM, first compound 3.16 µM
[30] = second compound 3.16 µM, first compound 10 µM
[31] = second compound 10 µM, first compound 0.0316 µM
[32] = second compound 10 µM, first compound 0.1 µM
[33] = second compound 10 µM, first compound 0.316 µM
[34] = second compound 10 µM, first compound 1 µM
[35] = second compound 10 µM, first compound 3.16 µM
[36] = second compound 10 µM, first compound 10 µM
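Note: spheroids exposed to drugs for 7 days before viability reading.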
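Throughout, for viability, T/C: 100% = DMSO vehicle control viability.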

With COc1cccc2c1C(=O)c1c(O)c3c(c(O)c1C2=O)CC(O)(C(=O)CO)CC3OC1CC(N)C(O)C(C)O1 (stereo unspecified) + CN(C)c1ccc(Nc2c3ccc(NC(=O)CCN4CCCC4)cc3nc3cc(NC(=O)CCN4CCCC4)ccc23)cc1 the IC50 (second compound 0.0316 µM) was 687 nM, the IC50 (second compound 0.1 µM) was 910 nM and the IC50 (second compound 0.316 µM) was 722 nM. The IC50 (second compound 1 µM) was 787 nM, the IC50 (second compound 3.16 µM) was 1010 nM and the IC50 (second compound 10 µM) was 408 nM. For the same compound, the viability, T/C [1] was 96.9%, the viability, T/C [2] was 75.1% and the viability, T/C [3] was 55.8%. The viability, T/C [4] was 54.9%, the viability, T/C [5] was 29.7% and the viability, T/C [6] was 3.98%. The viability, T/C [7] was 94.2%, the viability, T/C [8] was 73.8% and the viability, T/C [9] was 70.3%. It also gave a viability, T/C [10] of 47.7%, a viability, T/C [11] of 29.4% and a viability, T/C [12] of 6.1%. It also gave a viability, T/C [13] of 108%, a viability, T/C [14] of 80.6% and a viability, T/C [15] of 53.1%. It also gave a viability, T/C [16] of 51.5%, a viability, T/C [17] of 29.6% and a viability, T/C [18] of 5.16%. It also gave a viability, T/C [19] of 104%, a viability, T/C [20] of 76.7% and a viability, T/C [21] of 58.5%. The viability, T/C [22] was 55.8%, the viability, T/C [23] was 31% and the viability, T/C [24] was 5.6%. It also gave a viability, T/C [25] of 89.5%, a viability, T/C [26] of 84.5% and a viability, T/C [27] of 55.6%. It also gave a viability, T/C [28] of 56.6%, a viability, T/C [29] of 30.3% and a viability, T/C [30] of 6.32%. For the same compound, the viability, T/C [31] was 67.3%, the viability, T/C [32] was 59.1% and the viability, T/C [33] was 47.7%. It also gave a viability, T/C [34] of 42.9%, a viability, T/C [35] of 30.8% and a viability, T/C [36] of 5.21%.
Work on Nc1ccn(C2OC(CO)C(O)C2(F)F)c(=O)n1 (stereo unspecified) + CN(C)c1ccc(Nc2c3ccc(NC(=O)CCN4CCCC4)cc3nc3cc(NC(=O)CCN4CCCC4)ccc23)cc1 yielded an IC50 (second compound 0.0316 µM) of under 31.6 nM, an IC50 (second compound 0.1 µM) of under 31.6 nM and an IC50 (second compound 0.316 µM) of 121 nM. It also gave an IC50 (second compound 1 µM) of under 31.6 nM, an IC50 (second compound 3.16 µM) of under 31.6 nM and an IC50 (second compound 10 µM) of under 31.6 nM. It also gave a viability, T/C [1] of 48.3%, a viability, T/C [2] of 39.2% and a viability, T/C [3] of 40.5%. For the same compound, the viability, T/C [4] was 37.3%, the viability, T/C [5] was 44.5% and the viability, T/C [6] was 40.2%. For the same compound, the viability, T/C [7] was 53.9%, the viability, T/C [8] was 42.2% and the viability, T/C [9] was 40%. For the same compound, the viability, T/C [10] was 39.1%, the viability, T/C [11] was 44.1% and the viability, T/C [12] was 38.1%. For the same compound, the viability, T/C [13] was 53.6%, the viability, T/C [14] was 46.6% and the viability, T/C [15] was 48.7%. For the same compound, the viability, T/C [16] was 49.8%, the viability, T/C [17] was 40.1% and the viability, T/C [18] was 39.4%. The viability, T/C [19] was 46.7%, the viability, T/C [20] was 41.5% and the viability, T/C [21] was 39.3%. It also gave a viability, T/C [22] of 42.2%, a viability, T/C [23] of 39% and a viability, T/C [24] of 40.5%. For the same compound, the viability, T/C [25] was 44.7%, the viability, T/C [26] was 44.2% and the viability, T/C [27] was 40.6%. The viability, T/C [28] was 42.5%, the viability, T/C [29] was 40.5% and the viability, T/C [30] was 35.6%. It also gave a viability, T/C [31] of 42.4%, a viability, T/C [32] of 37.4% and a viability, T/C [33] of 33.4%. For the same compound, the viability, T/C [34] was 35.2%, the viability, T/C [35] was 38% and the viability, T/C [36] was 38.2%.
O=c1[nH]cc(F)c(=O)[nH]1 + CN(C)c1ccc(Nc2c3ccc(NC(=O)CCN4CCCC4)cc3nc3cc(NC(=O)CCN4CCCC4)ccc23)cc1 gave an IC50 (second compound 0.0316 µM) of over 10000 nM, an IC50 (second compound 0.1 µM) of over 10000 nM and an IC50 (second compound 0.316 µM) of over 10000 nM. It also gave an IC50 (second compound 1 µM) of over 10000 nM, an IC50 (second compound 3.16 µM) of over 10000 nM and an IC50 (second compound 10 µM) of over 10000 nM. The viability, T/C [1] was 111%, the viability, T/C [2] was 118% and the viability, T/C [3] was 94.2%. The viability, T/C [4] was 94.4%, the viability, T/C [5] was 109% and the viability, T/C [6] was 91.1%. For the same compound, the viability, T/C [7] was 102%, the viability, T/C [8] was 117% and the viability, T/C [9] was 105%. For the same compound, the viability, T/C [10] was 97%, the viability, T/C [11] was 110% and the viability, T/C [12] was 89.7%. It also gave a viability, T/C [13] of 107%, a viability, T/C [14] of 92.1% and a viability, T/C [15] of 95.4%. It also gave a viability, T/C [16] of 93.9%, a viability, T/C [17] of 95.4% and a viability, T/C [18] of 96.4%. The viability, T/C [19] was 98.9%, the viability, T/C [20] was 101% and the viability, T/C [21] was 102%. The viability, T/C [22] was 111%, the viability, T/C [23] was 105% and the viability, T/C [24] was 98.2%. The viability, T/C [25] was 89.4%, the viability, T/C [26] was 89.6% and the viability, T/C [27] was 103%. It also gave a viability, T/C [28] of 85.6%, a viability, T/C [29] of 110% and a viability, T/C [30] of 80%. It also gave a viability, T/C [31] of 66.5%, a viability, T/C [32] of 67.4% and a viability, T/C [33] of 63.1%. The viability, T/C [34] was 75.2%, the viability, T/C [35] was 68.4% and the viability, T/C [36] was 64.1%.
